# From patent US11566022B2, “3-(5-methoxy-1-oxoisoindolin-2-yl)piperidine-2,6-dione derivatives and uses thereof” (NOVARTIS AG, priority 2019, dated 2023)
# Like-named read-outs stand apart in the source and are kept apart here.
# Target: HiBit-WIZ fusion protein (Homo sapiens, UniProt O95785+Q96SW2)
# Test: Quantification of WIZ protein levels in HiBit tag fusion protein assay (WIZ HiBit assay in 293T cells)
# Format: cell-based
# Set-up: Dmax: dose or concentration left out as unconfirmed
# Conditions: for remaining activity at up to 25 µM / WIZ Amax: DMSO-normalized, curve-fitted percentage of WIZ-HiBit remaining at 25 uM; for remaining activity at up to 25 µM: read-out: WIZ Amax; for DC50: WIZ HiBit assay in 293T cells, 10-point, 5-fold dose response, highest concentration 25 μM, about 18 hours, read-out: WIZ AC50; for % degradation of WIZ (100-Amax): at 25 uM
# [1] = HEK-293T, 100 minus Amax, 293T cells, read-out: % degradation of WIZ (100-Amax)
# Chain of HiBit-WIZ fusion protein (O95785 whole entry, the tested form may be a part): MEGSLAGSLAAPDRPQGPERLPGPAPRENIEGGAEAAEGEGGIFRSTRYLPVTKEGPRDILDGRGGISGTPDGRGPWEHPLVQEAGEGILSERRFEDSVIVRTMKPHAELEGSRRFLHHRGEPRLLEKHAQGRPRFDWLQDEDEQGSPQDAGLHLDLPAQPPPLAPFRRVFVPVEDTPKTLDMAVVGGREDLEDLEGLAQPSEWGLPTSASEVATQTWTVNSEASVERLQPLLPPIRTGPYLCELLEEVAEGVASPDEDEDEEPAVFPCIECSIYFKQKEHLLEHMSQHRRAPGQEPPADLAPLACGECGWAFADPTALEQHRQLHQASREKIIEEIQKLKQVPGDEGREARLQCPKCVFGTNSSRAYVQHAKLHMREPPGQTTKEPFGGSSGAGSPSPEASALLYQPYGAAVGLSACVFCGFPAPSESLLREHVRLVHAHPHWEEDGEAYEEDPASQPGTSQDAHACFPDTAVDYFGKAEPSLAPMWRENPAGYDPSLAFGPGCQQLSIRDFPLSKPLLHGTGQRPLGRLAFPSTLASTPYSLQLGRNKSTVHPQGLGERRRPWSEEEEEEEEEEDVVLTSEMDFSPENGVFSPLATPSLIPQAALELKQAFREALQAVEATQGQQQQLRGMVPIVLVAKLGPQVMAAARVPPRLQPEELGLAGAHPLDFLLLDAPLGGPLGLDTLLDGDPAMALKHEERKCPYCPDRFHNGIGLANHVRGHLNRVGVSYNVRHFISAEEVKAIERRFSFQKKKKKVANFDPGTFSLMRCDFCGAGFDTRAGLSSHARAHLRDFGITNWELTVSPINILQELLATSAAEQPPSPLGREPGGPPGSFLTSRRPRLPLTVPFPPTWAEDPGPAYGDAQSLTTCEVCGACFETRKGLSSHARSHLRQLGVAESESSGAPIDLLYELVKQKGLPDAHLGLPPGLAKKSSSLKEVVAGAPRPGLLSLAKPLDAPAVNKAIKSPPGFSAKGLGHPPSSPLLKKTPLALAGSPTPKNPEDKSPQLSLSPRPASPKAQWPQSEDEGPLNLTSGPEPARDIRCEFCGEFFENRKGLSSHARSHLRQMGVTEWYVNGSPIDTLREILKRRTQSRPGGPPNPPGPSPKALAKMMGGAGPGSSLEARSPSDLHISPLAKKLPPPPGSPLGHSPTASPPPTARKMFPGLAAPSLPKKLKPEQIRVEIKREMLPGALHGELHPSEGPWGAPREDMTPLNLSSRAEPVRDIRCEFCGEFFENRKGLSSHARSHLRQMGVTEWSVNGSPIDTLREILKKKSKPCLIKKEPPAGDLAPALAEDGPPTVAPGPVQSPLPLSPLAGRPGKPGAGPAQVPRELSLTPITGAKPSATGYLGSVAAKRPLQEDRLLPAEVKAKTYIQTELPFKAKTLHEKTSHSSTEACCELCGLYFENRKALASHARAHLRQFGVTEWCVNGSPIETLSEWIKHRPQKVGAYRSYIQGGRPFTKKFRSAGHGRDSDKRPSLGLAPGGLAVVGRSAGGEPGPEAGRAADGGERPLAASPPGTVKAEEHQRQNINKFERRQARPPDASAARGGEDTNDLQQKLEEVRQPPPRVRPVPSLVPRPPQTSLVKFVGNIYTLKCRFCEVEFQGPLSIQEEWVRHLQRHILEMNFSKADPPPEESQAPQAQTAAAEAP
# Chain of HiBit-WIZ fusion protein (Q96SW2 whole entry, the tested form may be a part): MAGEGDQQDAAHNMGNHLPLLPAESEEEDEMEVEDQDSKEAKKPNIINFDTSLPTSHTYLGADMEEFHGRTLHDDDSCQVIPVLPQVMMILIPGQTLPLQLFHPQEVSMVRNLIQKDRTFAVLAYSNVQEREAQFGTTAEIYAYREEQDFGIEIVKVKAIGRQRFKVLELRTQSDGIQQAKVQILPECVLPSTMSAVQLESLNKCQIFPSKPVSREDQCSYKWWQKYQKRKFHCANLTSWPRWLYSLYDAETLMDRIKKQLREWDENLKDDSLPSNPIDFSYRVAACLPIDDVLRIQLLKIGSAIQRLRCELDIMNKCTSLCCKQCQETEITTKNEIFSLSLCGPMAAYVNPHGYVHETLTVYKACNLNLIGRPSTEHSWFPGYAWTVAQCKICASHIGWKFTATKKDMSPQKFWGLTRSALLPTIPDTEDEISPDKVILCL
# Chain of HiBit-WIZ fusion protein (Q16531 whole entry partner, the tested form may be a part): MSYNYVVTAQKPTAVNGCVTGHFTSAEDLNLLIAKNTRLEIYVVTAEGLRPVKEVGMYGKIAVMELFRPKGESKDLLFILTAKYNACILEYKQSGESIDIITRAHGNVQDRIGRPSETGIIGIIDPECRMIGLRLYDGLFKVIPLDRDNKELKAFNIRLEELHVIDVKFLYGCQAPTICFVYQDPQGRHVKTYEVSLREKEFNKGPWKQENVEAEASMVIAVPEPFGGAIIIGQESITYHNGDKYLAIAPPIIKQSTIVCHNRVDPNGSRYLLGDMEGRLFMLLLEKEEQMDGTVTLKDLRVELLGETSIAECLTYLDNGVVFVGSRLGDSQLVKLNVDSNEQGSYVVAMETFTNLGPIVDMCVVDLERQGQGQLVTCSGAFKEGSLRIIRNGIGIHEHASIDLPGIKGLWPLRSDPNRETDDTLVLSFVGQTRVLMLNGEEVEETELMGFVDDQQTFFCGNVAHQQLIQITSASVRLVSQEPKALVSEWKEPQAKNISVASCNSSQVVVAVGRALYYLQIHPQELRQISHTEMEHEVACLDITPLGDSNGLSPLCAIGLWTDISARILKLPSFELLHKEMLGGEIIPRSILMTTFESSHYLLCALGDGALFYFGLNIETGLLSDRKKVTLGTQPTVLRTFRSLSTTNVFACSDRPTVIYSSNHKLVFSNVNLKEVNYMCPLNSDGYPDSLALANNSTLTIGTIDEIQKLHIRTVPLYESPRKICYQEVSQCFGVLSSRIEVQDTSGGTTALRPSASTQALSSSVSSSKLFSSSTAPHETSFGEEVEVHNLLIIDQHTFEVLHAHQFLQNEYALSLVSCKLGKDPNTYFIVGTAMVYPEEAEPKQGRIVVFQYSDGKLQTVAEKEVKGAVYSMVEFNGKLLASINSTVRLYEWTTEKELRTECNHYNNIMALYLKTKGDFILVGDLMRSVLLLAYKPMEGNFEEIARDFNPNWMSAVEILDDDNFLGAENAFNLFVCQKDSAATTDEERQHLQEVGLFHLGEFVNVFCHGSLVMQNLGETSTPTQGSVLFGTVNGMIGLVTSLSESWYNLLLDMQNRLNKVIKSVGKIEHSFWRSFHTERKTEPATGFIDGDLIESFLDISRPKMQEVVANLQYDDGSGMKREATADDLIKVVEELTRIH
Structure (SMILES),Dmax [1] [%],"remaining activity at up to 25 µM (HEK-293T, 293T cells) [%]",DC50 [µM],"% degradation of WIZ (100-Amax) (100 minus Amax, 293T cells) [%]",WIZ Amax (293T cells) [%],"Dmax (HEK-293T, read-out: % degradation of WIZ (100-Amax), 100 minus Amax, 293T cells) [%]","remaining activity (HEK-293T, read-out: WIZ Amax, DMSO-normalized, curve-fitted percentage of WIZ-HiBit remaining at 25 uM, 293T cells) [%]"
O=C1CCC(N2Cc3cc(OC[C@@H]4CCCCN4C(=O)CN4CCCCC4)ccc3C2=O)C(=O)N1 (stereo partly drawn) [Compound I-72jq],11.7,88.3,> 25,–,–,–,–
O=C1CCC(N2Cc3cc(OC[C@@H]4CCCCN4C(=O)c4snnc4-c4ccccc4)ccc3C2=O)C(=O)N1 (stereo partly drawn) [Compound I-72fq],0.3,99.7,> 25,–,–,–,–
"CCN1CCc2cccc(CN3CCCC[C@@H]3COc3ccc4c(c3)CN(C3CCC(=O)NC3=O)C4=O)c21 (stereo partly drawn) [Compound I-112, 3-(5-(((R)-1-((1-ethylindolin-7-yl)methyl)piperidin-2-yl)methoxy)-1-oxoisoindolin-2-yl)piperidine-2,6-dione]",–,–,0.059,–,–,96.9,3.13
O=C1CCC(N2Cc3cc(OC[C@@H]4CCCCN4C(=O)c4cccnc4N4CCCC4)ccc3C2=O)C(=O)N1 (stereo partly drawn) [Compound I-72gb],23.9,76.1,> 25,–,–,–,–
O=C1CCC(N2Cc3cc(OC[C@@H]4CCCCN4C(=O)c4cccc(N5CCOCC5)n4)ccc3C2=O)C(=O)N1 (stereo partly drawn) [Compound I-72ae],14.7,85.3,> 25,–,–,–,–
O=C1CCC(N2Cc3cc(OC[C@H]4CCCCN4Cc4ccc[nH]c4=O)ccc3C2=O)C(=O)N1 (stereo partly drawn) [Compound I-50dp],65.5,34.5,6.84,–,–,–,–
Cc1n[nH]c(CC(=O)N2CCCC[C@H]2COc2ccc3c(c2)CN(C2CCC(=O)NC2=O)C3=O)n1 (stereo partly drawn) [Compound I-72cg],2.2,97.8,> 25,–,–,–,–
Cn1ccc(C(=O)N2CCCC[C@H]2COc2ccc3c(c2)CN(C2CCC(=O)NC2=O)C3=O)cc1=O (stereo partly drawn) [Compound I-72ao],8.3,91.7,> 25,–,–,–,–
COc1ccncc1C(=O)N1CCCC[C@H]1COc1ccc2c(c1)CN(C1CCC(=O)NC1=O)C2=O (stereo partly drawn) [Compound I-72bc],3,97,> 25,–,–,–,–
Cc1nnsc1CN1CCCC[C@H]1COc1ccc2c(c1)CN(C1CCC(=O)NC1=O)C2=O (stereo partly drawn) [Compound I-50at],9.8,90.2,> 25,–,–,–,–
COc1cc(OC)nc(C(=O)N2CCCC[C@H]2COc2ccc3c(c2)CN(C2CCC(=O)NC2=O)C3=O)n1 (stereo partly drawn) [Compound I-72is],0.9,99.1,> 25,–,–,–,–
O=C1CCC(N2Cc3cc(OC[C@@H]4CCCCN4C(=O)C45CC(F)(C4)C5)ccc3C2=O)C(=O)N1 (stereo partly drawn) [Compound I-72iv],2.2,97.8,> 25,–,–,–,–
CC(C)(C)OC(=O)NC1(CN2CCCC[C@@H]2COc2ccc3c(c2)CN(C2CCC(=O)NC2=O)C3=O)CCCC1 (stereo partly drawn) [Compound I-50cf],38.1,61.9,> 25,–,–,–,–
Cc1cc(CN2CCCC[C@@H]2COc2ccc3c(c2)CN(C2CCC(=O)NC2=O)C3=O)no1 (stereo partly drawn) [Compound I-50eq],88.4,11.6,0.272,–,–,–,–
CC#CCCOc1ccc(C(=O)N2CCCC[C@H]2COc2ccc3c(c2)CN(C2CCC(=O)NC2=O)C3=O)cc1 (stereo partly drawn) [Compound I-72ew],54.9,45.1,14.6,–,–,–,–
CC(C)Oc1cccc(C(=O)N2CCCC[C@H]2COc2ccc3c(c2)CN(C2CCC(=O)NC2=O)C3=O)c1 (stereo partly drawn) [Compound I-72ju],14.5,85.5,> 25,–,–,–,–
COc1ccc(-c2cc(C(=O)N3CCCC[C@H]3COc3ccc4c(c3)CN(C3CCC(=O)NC3=O)C4=O)[nH]n2)cc1 (stereo partly drawn) [Compound I-72ai],41.6,58.4,> 25,–,–,–,–
CC(C)c1cc(C(=O)N2CCCC[C@H]2COc2ccc3c(c2)CN(C2CCC(=O)NC2=O)C3=O)n(C)n1 (stereo partly drawn) [Compound I-72gd],80.1,19.9,0.919,–,–,–,–
O=C1CCC(N2Cc3cc(OC[C@H]4CCCCN4Cc4cccn5ccnc45)ccc3C2=O)C(=O)N1 (stereo partly drawn) [Compound I-50ca],76.3,23.7,0.239,–,–,–,–
COc1cc(C#N)ccc1CN1CCCC[C@@H]1COc1ccc2c(c1)CN(C1CCC(=O)NC1=O)C2=O (stereo partly drawn) [Compound I-50cm],67.2,32.8,1.77,–,–,–,–

# The next lines start with results.
Dmax [1] [%],"remaining activity at up to 25 µM (HEK-293T, 293T cells) [%]",DC50 [µM],"% degradation of WIZ (100-Amax) (100 minus Amax, 293T cells) [%]",WIZ Amax (293T cells) [%],Structure (SMILES),"Dmax (HEK-293T, read-out: % degradation of WIZ (100-Amax), 100 minus Amax, 293T cells) [%]","remaining activity (HEK-293T, read-out: WIZ Amax, DMSO-normalized, curve-fitted percentage of WIZ-HiBit remaining at 25 uM, 293T cells) [%]"
26.4,73.6,> 25,–,–,"CCN1CCCC(C)(C)C1COc1ccc2c(c1)CN(C1CCC(=O)NC1=O)C2=O (single isomer, unassigned) [Compound I-17, 3-(5-((1-ethyl-3,3-dimethylpiperidin-2-yl)methoxy)-1-oxoisoindolin-2-yl)piperidine-2,6-dione]",–,–
97.4,2.56,0.01,–,–,O=C1CCC(N2Cc3cc(OC[C@H]4CCCCN4Cc4ccccc4N4CCCCC4)ccc3C2=O)C(=O)N1 (stereo partly drawn) [Compound I-119],–,–
86.6,13.4,0.00035,–,–,"O=C1CCC(N2Cc3cc(OC[C@H]4CCCCN4Cc4ccc(C5=CCOCC5)cc4)ccc3C2=O)C(=O)N1 (stereo partly drawn) [Compound I-188, 3-(5-(((R)-1-(4-(3,6-dihydro-2H-pyran-4-yl)benzyl)piperidin-2-yl)methoxy)-1-oxoisoindolin-2-yl)piperidine-2,6-dione]",–,–
78.2,21.8,0.962,–,–,CCc1noc(CC)c1C(=O)N1CCCC[C@H]1COc1ccc2c(c1)CN(C1CCC(=O)NC1=O)C2=O (stereo partly drawn) [Compound I-72s],–,–
87.1,12.9,0.54,–,–,"O=C1CCC(N2Cc3cc(OC[C@H]4CCCCN4CC4CC5(COC5)C4)ccc3C2=O)C(=O)N1 (stereo partly drawn) [Compound I-104, 3-(5-(((R)-1-((2-oxaspiro[3.3]heptan-6-yl)methyl)piperidin-2-yl)methoxy)-1-oxoisoindolin-2-yl)piperidine-2,6-dione]",–,–
80.1,19.9,2.56,–,–,"O=C1CCC(N2Cc3cc(OC[C@H]4CCCCN4Cc4ccccc4N4CCNCC4)ccc3C2=O)C(=O)N1 (stereo partly drawn) [Compound I-106, 3-(1-oxo-5-(((R)-1-(2-(piperazin-1-yl)benzyl)piperidin-2-yl)methoxy)isoindolin-2-yl)piperidine-2,6-dione]",–,–
69.9,30.1,1.47,–,–,CCCCCc1ccc(C(=O)N2CCCC[C@H]2COc2ccc3c(c2)CN(C2CCC(=O)NC2=O)C3=O)cc1 (stereo partly drawn) [Compound I-72t],–,–
22,78,> 25,–,–,O=C1CCC(N2Cc3cc(OC[C@@H]4CCCCN4Cc4cc(-n5nnnc5C(F)(F)F)ccc4O)ccc3C2=O)C(=O)N1 (stereo partly drawn) [Compound I-50x],–,–
–,–,> 25,21.3,78.7,"CCC(Oc1ccc2c(c1)CN(C1CCC(=O)NC1=O)C2=O)[C@@H]1CCCN1 (single isomer, unassigned) [Compound I-45]",–,–
4.5,95.5,> 25,–,–,O=C1CCC(N2Cc3cc(OC[C@@H]4CCCCN4Cc4ccccc4Cn4cncn4)ccc3C2=O)C(=O)N1 (stereo partly drawn) [Compound I-50q],–,–
99.8,0.21,0.016,–,–,"CC(C)CN1CCN(c2ccccc2CN2CCCC[C@@H]2COc2ccc3c(c2)CN(C2CCC(=O)NC2=O)C3=O)CC1 (stereo partly drawn) [Compound I-107, 3-(5-(((R)-1-(2-(4-isobutylpiperazin-1-yl)benzyl)piperidin-2-yl)methoxy)-1-oxoisoindolin-2-yl)piperidine-2,6-dione]",–,–
–,89.7,> 25,10.3,–,"CCC(Oc1ccc2c(c1)CN(C1CCC(=O)NC1=O)C2=O)[C@@H]1CCCN1 (single isomer, unassigned) [Compound I-44]",–,–
–,–,0.12,55.68,44.32,"O=C1CCC(N2Cc3cc(OC[C@H]4CCCCN4CC4CCOC4)ccc3C2=O)C(=O)N1 (single isomer, unassigned) [Compound I-213]",–,–
78.3,21.7,0.784,–,–,COc1ccccc1CN1CCCC[C@H]1COc1ccc2c(c1)CN(C1CCC(=O)NC1=O)C2=O (stereo partly drawn) [Compound I-50d],–,–
82.2,17.8,0.41,–,–,"O=C1CCC(N2Cc3cc(OC[C@H]4CCCCN4CC45CC(F)(C4)C5)ccc3C2=O)C(=O)N1 (stereo partly drawn) [Compound I-100, 3-(5-(((R)-1-((3-fluorobicyclo[1.1.1]pentan-1-yl)methyl)piperidin-2-yl)methoxy)-1-oxoisoindolin-2-yl)piperidine-2,6-dione]",–,–
–,–,> 25,46.6,53.4,"CCN1CCC[C@H]1C(C)Oc1ccc2c(c1)CN(C1CCC(=O)NC1=O)C2=O (single isomer, unassigned) [Compound I-25]",–,–
89.5,10.5,0.17,–,–,O=C1CCC(N2Cc3cc(OC[C@H]4CCCCN4Cc4ccc(F)cn4)ccc3C2=O)C(=O)N1 (stereo partly drawn) [Compound I-115],–,–
80.8,19.1,0.0043,–,–,"O=C1CCC(N2Cc3cc(OC[C@H]4CCCCN4Cc4ccc(N5CCOCC5)nc4)ccc3C2=O)C(=O)N1 (stereo partly drawn) [Compound I-186, 3-(5-(((R)-1-((6-morpholinopyridin-3-yl)methyl)piperidin-2-yl)methoxy)-1-oxoisoindolin-2-yl)piperidine-2,6-dione]",–,–
